Legend:
[1] = target: T1, TG2-fibronectin (FN42) interaction (Homo sapiens, UniProt P21980); assay: TG2 interaction with fibronectin (FN42) ELISA; type: binding; conditions: 5 and 15 μM, with or without 1 mM CaCl2, Fig 2E, 2F
T1 construct: purchased Zedira
T1 sequence (P21980 1-687): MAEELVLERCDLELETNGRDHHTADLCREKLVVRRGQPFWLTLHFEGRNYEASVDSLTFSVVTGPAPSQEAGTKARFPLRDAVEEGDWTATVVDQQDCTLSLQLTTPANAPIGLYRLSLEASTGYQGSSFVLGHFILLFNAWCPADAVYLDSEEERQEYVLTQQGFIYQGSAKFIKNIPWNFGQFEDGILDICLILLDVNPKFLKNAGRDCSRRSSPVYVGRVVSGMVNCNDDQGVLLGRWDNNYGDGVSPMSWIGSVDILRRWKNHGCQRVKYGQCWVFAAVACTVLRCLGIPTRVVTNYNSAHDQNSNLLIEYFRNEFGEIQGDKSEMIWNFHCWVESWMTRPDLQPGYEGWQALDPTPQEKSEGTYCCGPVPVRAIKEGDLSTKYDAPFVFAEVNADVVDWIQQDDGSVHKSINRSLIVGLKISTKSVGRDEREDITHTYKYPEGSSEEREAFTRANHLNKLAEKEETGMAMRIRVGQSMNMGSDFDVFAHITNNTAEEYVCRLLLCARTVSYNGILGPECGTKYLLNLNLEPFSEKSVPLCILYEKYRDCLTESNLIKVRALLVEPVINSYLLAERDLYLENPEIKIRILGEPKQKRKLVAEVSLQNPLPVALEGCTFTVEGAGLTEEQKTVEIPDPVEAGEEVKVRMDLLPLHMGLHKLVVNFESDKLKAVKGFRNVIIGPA
Procedure: To determine the potential effect of BJJF078 and ERW1041E on the interaction of TG2 with fibronectin, ELISA experiments were performed as described previously. Briefly, 96 well ELISA plates (Nunc, Maxisorp) were coated with 100 μg/ml mouse anti his-tag monoclonal antibody (Roche) in PBS at 4°C overnight. This was followed by simultaneous washing and blocking with 0.5% BSA in PBS (3x 10 min). Per well 50 μl of a 10 nM human recombinant TG2 (his-tagged, Zedira) solution in PBS was added. Into each well (triplicates) either DMSO (control, 1% final concentration) or TG2 inhibitors (BJJF078, ERW1041E, final concentration 5 and 15 μM in 1% DMSO) were added. As a positive control similar concentrations of TG53, a small molecule that inhibits the interaction between TG2 and fibronectin was added (kindly provided by Prof D. Matei, Northwestern University, Chicago, USA). […] After 1 h incubation at RT, 50 μl of 10 nM FN42-biotin solution (kindly provided by Prof D. Matei) was added to the wells. After an additional 1 h incubation at RT and washing steps (3x 10 min) with 0.5% BSA in PBS, 100 μl streptavidin-HRPO conjugate (from kit opr001, Covalab) was added and incubated for 1 h at RT. This was followed by another series of washes and the colour reaction started with 100 μl of 3,3′,5,5′ tetramethylbenzidine substrate (TMB, from kit opr001, Covalab). After sufficient colour development (15 min), the reaction was stopped with 1M HCl and absorbance was measured at 450 nm.

[2] = test system: fibronectin assembly; design: method as in PMID 26133787, PMID 17099729; conditions: cited from earlier work

Row | SMILES | effect on binding of TG2 to fibronectin (FN42) [1] | effect on fibronectin assembly [2]
1 | COc1ccc(Cl)cc1C(=O)Nc1ccc(Nc2nc(C)cc(N(C)C)n2)cc1 [TG53] | dose-dependent reduction | 
2 | O=C(N[C@@H](Cc1ccc(O)cc1)C(=O)NCC1CC(Br)=NO1)OCc1ccccc1 (some centres unmarked) [KCC009] |  | can interfere with fibronectin assembly

Source: PMC5918173, “Characterization of Transglutaminase 2 activity inhibitors in monocytes in vitro and their effect in a mouse model for multiple sclerosis” (PLoS ONE, 2018)
